Source: ChEMBL document CHEMBL1157715, “Probes for narcotic receptor mediated phenomena. 40. N-substituted cis-4a-ethyl-1,2,3,4,4a,9a-hexahydrobenzofuro[2,3-c]pyridin-8-ols” (Bioorg Med Chem, 2010)

Assays:
Assay type in all cases: cell-based
Mu-type opioid receptor = Mu-type opioid receptor (Homo sapiens, UniProt P35372); assay: Displacement of [3H]DAMGO from mu opioid receptor expressed in CHO cells
[1] = biological target: Kappa-type opioid receptor (Homo sapiens, UniProt P41145); assay: Displacement of [3H]U69593 from kappa opioid receptor expressed in CHO cells
Kappa-type opioid receptor, sequence (P41145 whole entry): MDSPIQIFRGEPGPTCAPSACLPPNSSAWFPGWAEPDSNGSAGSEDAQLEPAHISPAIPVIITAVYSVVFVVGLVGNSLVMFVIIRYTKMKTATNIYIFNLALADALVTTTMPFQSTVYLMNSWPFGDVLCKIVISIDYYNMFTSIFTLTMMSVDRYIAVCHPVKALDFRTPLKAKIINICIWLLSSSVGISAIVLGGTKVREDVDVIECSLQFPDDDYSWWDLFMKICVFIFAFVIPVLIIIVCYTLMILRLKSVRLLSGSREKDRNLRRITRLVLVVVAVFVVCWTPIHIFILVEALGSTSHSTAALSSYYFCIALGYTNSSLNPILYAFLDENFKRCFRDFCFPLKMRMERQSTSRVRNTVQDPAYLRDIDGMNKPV

[2] = biological target: Delta-type opioid receptor (Homo sapiens, UniProt P41143); assay: Displacement of [3H]DADLE from delta opioid receptor expressed in CHO cells
Delta-type opioid receptor, sequence (P41143 whole entry): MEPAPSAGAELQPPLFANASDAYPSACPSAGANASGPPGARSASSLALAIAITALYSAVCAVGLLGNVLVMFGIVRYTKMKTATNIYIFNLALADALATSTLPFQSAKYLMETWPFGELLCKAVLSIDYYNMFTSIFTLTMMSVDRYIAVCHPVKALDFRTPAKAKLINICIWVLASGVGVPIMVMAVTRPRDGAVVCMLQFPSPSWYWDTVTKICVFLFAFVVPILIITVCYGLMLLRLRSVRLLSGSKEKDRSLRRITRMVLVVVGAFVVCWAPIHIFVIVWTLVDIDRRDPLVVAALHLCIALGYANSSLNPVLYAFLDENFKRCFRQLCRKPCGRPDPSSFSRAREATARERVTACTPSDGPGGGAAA

Mu-type opioid receptor, sequence (P35372 whole entry): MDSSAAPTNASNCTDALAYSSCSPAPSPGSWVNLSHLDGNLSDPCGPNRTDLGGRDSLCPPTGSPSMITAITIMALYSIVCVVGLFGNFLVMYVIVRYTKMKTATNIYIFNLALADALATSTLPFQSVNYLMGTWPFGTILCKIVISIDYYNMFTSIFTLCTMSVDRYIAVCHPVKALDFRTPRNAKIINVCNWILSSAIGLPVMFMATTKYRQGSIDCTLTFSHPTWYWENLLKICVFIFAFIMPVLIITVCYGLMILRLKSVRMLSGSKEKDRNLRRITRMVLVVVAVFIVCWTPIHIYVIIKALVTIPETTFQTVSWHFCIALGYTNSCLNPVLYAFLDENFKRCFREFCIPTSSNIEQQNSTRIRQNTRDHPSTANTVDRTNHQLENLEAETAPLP

SMILES	Ki (Mu-type opioid receptor)	Ki [1]	Ki [2]
Oc1ccc2c(c1)C1CCN(CCc3ccccc3)CC1O2 (stereo unspecified)	0.9 nM		
Oc1ccc2c(c1)C1CCN(CC3CC3)CC1O2 (stereo unspecified)	4 nM		
CC[C@@]12CCN(C)C[C@@H]1Oc1c(O)cccc12 (racemic)	795 nM	> 10000 nM	7480 nM
CC[C@@]12CCN(CCc3ccc(F)cc3)C[C@@H]1Oc1c(O)cccc12 (racemic)	354 nM	935 nM	> 4500 nM
CC[C@@]12CCN(CCc3ccccc3)C[C@@H]1Oc1c(O)cccc12 (racemic)	1630 nM	2220 nM	7210 nM
CC[C@@]12CCN(CC3CC3)C[C@@H]1Oc1c(O)cccc12 (racemic)	4670 nM	10000 nM	6150 nM
CC[C@@]12CCN(Cc3ccc(F)cc3)C[C@@H]1Oc1c(O)cccc12 (racemic)	> 2700 nM	3380 nM	> 4500 nM
CC[C@@]12CCN(CCc3ccc([N+](=O)[O-])cc3)C[C@@H]1Oc1c(O)cccc12 (racemic)	670 nM	720 nM	2260 nM
CN1CC[C@@]2(CCc3ccccc3)c3cccc(O)c3O[C@H]2C1 (racemic)	740 nM	2880 nM	> 4300 nM
CC[C@@]12CCN(CCc3ccccc3)C[C@@H]1Oc1ccc(O)cc12	0.7 nM	88 nM	75 nM
